Source: patent US6251940A, “Inflammatory cell inhibitors” (British Biotech Pharmaceuticals Ltd., priority 1998, dated 2001)

Tests used:
Human PBMCs [1] = test: Inhibition of anti-CD3-induced T lymphocyte proliferation of PBMCs; assay type: cell-based; conditions: 48 hrs; for Inhibition of cell proliferation (in words), anti-CD3: range of dilutions
Experimental: Inhibition of Anti-CD3-induced T Lymphocyte Activation and Proliferation
(§1) The compounds of examples 1, 6, 19, 39, 40 and 43 above were tested for its effects on anti-CD3-driven proliferation of peripheral blood mononuclear cells (PBMCs) in vitro. The PBMCs were activated with anti-CD3 antibody which directly activates T lymphocytes via the T cell receptor CD3 component, although other cells do contribute to T cell proliferation by co-stimulation and growth factor production. Human PBMCs (5×10^4cells/well), purified from whole blood by centrifugation through ficoll/hypaque, were incubated in monoclonal anti-CD3 antibody-coated wells (5 μg/ml) and compound 1 at a range of dilutions in a 96 well microtitre plate for 48 hrs at 37° C. in a 5% CO2 incubator. DMSO was run in each assay as a vehicle control. 0.5 μCuries of tritiated thymidine in 40 μl (Amersham) were added to each well during the final 18 hrs. The cells were then harvested on glass fibre pads using a Tomtech cell harvester and, after adding scintillant to the pad (Meltilex) they were placed in a Wallac MicroBeta plate counter. The results obtained are in counts per minute and reflect the level of tritiated thymidine incorporation into the cells and therefore the level of cell proliferation. The percentage proliferation in test wells compared to control wells was calculated. The results were plotted and the IC50 value calculated.

TNF alpha = test: Inhibition of TNF production in PWM-activated whole blood; assay type: cell-based; conditions: 10 μM, PWM-activated whole blood diluted 1/5, 24 hours; for TNF alpha: vehicle 1031 pg/ml
Experimental: (§2) Human PBMCs (2-5×10^6 cells/well), purified from whole blood by centrifugation through ficoll/hypaque, were incubated with either PWM (2.5 μg/ml) or PPD (1 μg/ml) and compound example 3 at 10 μM in a 24 well microtitre plates for 48 hrs at 37° C. in a CO2 incubator. DMSO was run in each assay as a vehicle control. Supernatant was removed after 48 hrs and microfuged at 10,000 rpm for 2 minutes. Supematant was removed, aliquotted and stored at -70° C. until tested.
In a modification of the above procedure, the compounds of Examples 19 and 40 were tested at 10 μM for inhibition of TNF production in PWM-activated whole blood diluted 1/5 in RPMI containing 1% nutridoma. The supernatants were tested after 24 hours of culture.

[2] = tested on: Experimental Autoimmune Neuritis; test: Experimental Autoimmune Neuritis animal model; assay type: in vivo, Male Lewis rats; conditions: 100 mg.kg^-1 ip uid, day 1 to 14; day 15 post-inoculation; groups of 9
Human PBMCs [3] = test: Inhibition of antigen (PPD)-induced T lymphocyte proliferation of PBMCs; assay type: cell-based; conditions: PBMC, PPD 1 μg/ml, 72 hrs, tritiated thymidine, read-out: IC50, PBMCs stimulated with PPD
Human PBMCs [4] = test: Inhibition of mitogen (PWM)-induced lymphocyte proliferation of PBMCs; assay type: cell-based; conditions: PBMC, PWM 2.5 μg/ml, 48 hrs, tritiated thymidine, read-out: IC50, PBMCs stimulated with PWM
Experimental: Inhibition of Mitogen-induced Lymphocyte Proliferation
The compounds of examples 1, 2, 3, 6, 19, 39, 40 and 43 above were tested for their effects on the proliferation of peripheral blood mononuclear cells (PBMCs) in vitro. The PBMCs were activated with Pokeweed mitogen (PWM), a potent activator of lymphocytes and monocytes which leads to B and T lymphocyte proliferation.
Human PBMCs (2×10^4 cells/well), purified from whole blood by centrifugation through ficoll/hypaque, were incubated with PWM (2.5 μg/ml) and compounds 1 and 2 at a range of dilutions in 96 well microtitre plates for 48 hrs at 37° C. in a 5% CO2 incubator. DMSO was run in each assay as a vehicle control. 0.5 μCuries of tritiated thymidine in 40 μl (Amersham) were added to each well during the final 18 hrs. The cells were then harvested on glass fibre pads using a Tomtech cell harvester and, after adding scintillant to the pad (Meltilex) they were placed in a Wallac MicroBeta plate counter. The results obtained are in counts per minute and reflect the level of tritiated thymidine incorporation into the cells and therefore the level of cell proliferation. The percentage proliferation in test wells compared to control wells was calculated and the inhibition curves plotted. The IC50 values were calculated from the inhibition curves.

CD69 = CD69 expression on T cells activated by anti-CD3 (FACS); assay type: cell-based, Human; conditions: 4 hrs treatment; untreated cells 68%
Experimental: as §1, with “The results obtained are in counts per minute and reflect the level of tritiated thymidine incorporation into the cells and therefore the level of cell proliferation.” left out
CD69 is a membrane marker of T cell activation. The level of CD69 expression on the membranes of T cells activated by anti-CD3 was therefore measured by fluorescence activated cell (FACS) flow cytometry.

TNF [5] = test: Inhibition of production of TNF, PPD-activated PBMCs (ELISA); assay type: cell-based, Human; conditions: 48 hrs
Experimental: (§3) Inhibition of Production of TNF
(§4) The compound of example 3 above was tested for its effect on the production of the pro-inflammatory cytokine TNF. TNF is released from various cells (monocytes and B lymphocytes) following activation by mitogen or antigen. The production of this inflammatory mediator in the supernatant of activated PBMCs was measured by ELISA.
as §2

TNF [6] = test: Inhibition of production of TNF, PWM-activated PBMCs (ELISA); assay type: cell-based, Human; conditions: 48 hrs
Experimental: as §3, §4, §2

SMILES	Inhibition of cell proliferation (in words), anti-CD3 (Human PBMCs [1])	IC50 (Human PBMCs [3]) [µM]	IC50 (Human PBMCs [4]) [µM]	also measured
CC(C)C[C@H](CC(=O)NO)C(=O)N[C@@H](Cc1ccccc1)C(=O)OC(C)C [Example 6, 2S-(2R-Hydroxycarbamoylmethyl-4-methyl-pentanoylamino)-3-phenyl-propionic acid isopropyl ester]	inhibited cell proliferation in a dose related fashion			
CC(C)C[C@@H](C(=O)NC(C(=O)OC1CCCC1)c1ccccc1)[C@H](O)C(=O)NO (stereo partly drawn) [Example 43, 2-[2R-(S-Hydroxy-hydroxycarbamoyl-methyl)-4-methyl-pentanoylamine]-2-phenyl-ethanoic acid cyclopentyl ester]	inhibited cell proliferation in a dose related fashion			
C=CC[C@H](C(=O)NO)[C@@H](CC(C)C)C(=O)N[C@@H](Cc1ccccc1)C(=O)OC1CCCC1 [Example 19, 2S-(3S-Hydroxycarbamoyl-2R-isobutyl-hex-5-enoylamino)-3-phenylpropionic acid cyclopentyl ester]	inhibited cell proliferation in a dose related fashion	1.1		TNF production (in words) (TNF alpha): reduced the level of TNF production; TNF alpha (TNF alpha): 489 pg/mL; reduction in mean clinical score compared to vehicle group [2]: 93%
C=CC[C@H](C(=O)NO)[C@@H](CC(C)C)C(=O)N[C@@H](COC(C)(C)C)C(=O)OC1CCCC1 [Example 39, 3-tert-Butoxy-2S-(3S-hydroxycarbamoyl-2R-isobutyl-hex-5-enoylamino)-propionic acid cyclopentyl ester]	inhibited cell proliferation in a dose related fashion			
C=CC[C@H](C(=O)NO)[C@@H](CC(C)C)C(=O)N[C@H](C(=O)OC1CCCC1)c1ccccc1 [Example 40, 2S-(3S-Hydroxycarbamoyl-2R-isobutyl-hex-5-enoylamino)-2-phenylethanoic acid cyclopentyl ester]	inhibited cell proliferation in a dose related fashion			TNF production (in words) (TNF alpha): reduced the level of TNF production; TNF alpha (TNF alpha): 600 pg/mL
C=CC[C@H](C(=O)NO)[C@@H](CC(C)C)C(=O)N[C@@H](Cc1ccccc1)C(=O)OCC [Example 2, 2S-(3S-Hydroxycarbamoyl-2R-isobutyl-hex-5-enoylamino)-3-phenylpropionic acid ethyl ester]			4.8	
C=CC[C@H](C(=O)NO)[C@@H](CC(C)C)C(=O)N[C@@H](Cc1ccccc1)C(=O)OC [Example 1, 2S-(3S-Hydroxycarbamoyl-2R-isobutyl-hex-5-enoylamino)-3-phenylpropionic acid methyl ester]	inhibited cell proliferation in a dose related fashion	2	4.7	IC50 (Human PBMCs [1]; Homo sapiens, PBMC, anti-CD3 antibody-coated wells 5 μg/ml, tritiated thymidine, read-out: IC50, PBMCs stimulated with ANTI-CD3): 2.1 µM; expression of CD69 (% of T cells) (CD69): 48%
C=CC[C@H](C(=O)NO)[C@@H](CC(C)C)C(=O)N[C@@H](Cc1ccccc1)C(=O)OC(C)C [Example 3, 2S-(3S-Hydroxycarbamoyl-2R-isobutyl-hex-5-enoylamino)-3-phenylpropionic acid isopropyl ester]		1.8	2.4	TNF, ACTIVATED PPD (TNF [5]; 10 μM, dmso 50 pg/ml): 15 pg/mL; inhibition at 10 µM (TNF [5]; Homo sapiens, PBMC, versus dmso, read-out: reduction of the level of TNF production, PPD system): 70%; TNF, ACTIVATED PWM (TNF [6]; 10 μM, dmso 1390 pg/ml): 495 pg/mL; inhibition at 10 µM (TNF [6]; Homo sapiens, PBMC, versus dmso, read-out: reduction of the level of TNF production, PWM system): 64%
